Results on one compound are retold here after ChEMBL document CHEMBL2163293, “Rational approaches to improving selectivity in drug design” (J Med Chem, 2012).

The test has as its target Protease (Human immunodeficiency virus 1, UniProt Q9YQ12). Nature of the test: Inhibition of HIV1 protease.

Protease, sequence (Q9YQ12 whole entry): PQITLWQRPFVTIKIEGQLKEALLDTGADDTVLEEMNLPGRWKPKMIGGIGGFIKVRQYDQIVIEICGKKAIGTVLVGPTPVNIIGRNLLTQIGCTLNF

Consider `CC(=O)N[C@H](C(=O)N[C@H](C(=O)N[C@@H](CC(C)C)[C@@H](O)CC(=O)N[C@@H](C)C(=O)N[C@@H](CC(C)C)[C@@H](O)CC(=O)O)C(C)C)C(C)C` [ACETYLPEPSTATIN], for which the inhibitory constant (Ki) (as a rule, the equilibrium dissociation constant of an inhibitor or competing ligand from its target) was found to be 20 pM.
